# According to patent publication EP4324461A1, “(E)-N-CINAMOYLAMINOALKANOLES WITH MELANOGENESIS INHIBITORY ACTIVITY” (UNIWERSYTET JAGIELLONSKI, priority 2022, dated 2024):
# Like-named read-outs stand apart in the source and are kept apart here.
# Tests used:
# S. typhimurium TA100 = assay: Ames microplate test, TA100; assay type: cell-based, Salmonella typhimurium; conditions: without S9;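 note: reference level is the mean solvent-control yellow wells plus SD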
# Experimental: (§1) Bacteria were grown overnight in growth medium.
# (§2) Table 9. Ames microplate test results.
# [1] = system: Chinese hamster ovary cell line (CHO-K1); assay: Cytotoxicity in CHO-K1 cells (MTT) before the micronucleus test; assay type: cell-based; conditions: 24 hours
# Experimental: The assay was performed using a Chinese hamster ovary cell line (CHO-K1) purchased from the American Type Culture Collection (ATCC). The cells were cultured in F-12K medium with the addition of 10% fetal bovine serum (FBS) and antibiotics (streptomycin/penicillin) in an incubator at 37 °C and 5% CO2 concentration). Before the actual micronucleus test, a cytotoxicity assessment was performed to ensure that the actual test was performed only at safe concentrations. For this purpose, cells were transferred to 96-well plates and incubated with the tested compounds for 24 hours. After this time, the MTT test was performed and cell viability was assessed in comparison to the control group (cells cultured with DMSO at the same concentration as in the case of the tested samples).
# S. typhimurium TA98 = assay: Ames microplate test, TA98; assay type: cell-based, Salmonella typhimurium; conditions: without S9;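 note: reference level is the mean solvent-control yellow wells plus SD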
# Experimental: as §1, §2
# [2] = system: Chinese hamster ovary cell line (CHO-K1); assay: Genotoxicity in the micronucleus test in CHO-K1 cells; assay type: cell-based
# [3] = Lipophilicity coefficient RM0 by reversed phase thin layer chromatography; assay type: physicochemical; conditions: RP-18 TLC, methanol / 100 mM phosphate buffer pH = 7.4
# Experimental: Confirmation of the identity and purity of the obtained compounds consisted in the registration and interpretation of ^1H NMR and ^13C NMR spectra (the spectra were recorded using an ECZR 500 MHz (JEOL) series FT-NMR spectrophotometer), as well as the registration and interpretation of LC-MS spectra (the spectra were recorded using Acquita UPLC system (Waters) coupled with a Waters TQD mass spectrometer). The melting point was measured using the open capillary method in the IA9300 device (Electrothermal). The lipophilicity coefficient RM0 was determined by reversed phase thin layer chromatography. In the study, aluminum plates 20x20 cm covered with modified silica gel RP-18 F254 (Merck) were used as the solid phase. The mobile phase consisted of solutions of methanol and 100 mM phosphate buffer (pH = 7.4), characterized by a variable methanol content ranging from 95 to 65% (v/v). The tested compounds were dissolved in methanol to obtain solutions with a concentration of 1 mg/mL. Then, 5 µL of the solutions prepared in this way were transferred to the starting line on aluminum plates, which were then placed in chromatographic chambers previously saturated with mobile phase vapors for at least 1 hour. All activities, including the development of chromatograms, were carried out at room temperature. After developing the chromatograms to approximately 1-2 cm from the end of the plate, the plates were dried and then the distance traveled by the tested compounds was visualized under UV light (λ = 254 nm). The experiment was performed in duplicate for the specified conditions. For all samples, Rf was calculated according to the formula Rf = a/b, where a - the distance traveled by the tested compound, b - the distance traveled by the mobile phase. Then, the RM parameter was calculated for all samples according to the formula RM = log(1/Rf - 1), obtaining a linear relationship between the RM values and the methanol concentration in the mobile phase. The logP coefficient was also calculated using the following computer programs: ACD/ChemSketch 2020.1.2 and ChemDraw 20.0.0.41. Table 2. The physicochemical data of the compounds are presented below
# [4] = system: B16-F10 murine melanoma cell line; assay: Cytotoxicity in B16-F10 cells (MTT); assay type: cell-based; conditions: 48 h
# Experimental: In order to determine safe doses of compounds for testing the inhibition of melanogenesis in a murine melanoma cell line, cytotoxicity tests were performed. Cytotoxicity was determined by the colorimetric method using MTT ([3-(4,5-dimethyl-2-thiazolyl)-2,5-diphenyl-2H-tetrazolium bromide, Sigma M5655). For this purpose, cells were transferred to 96-well plates in an amount of 5000/well. After 24 h of culture in an incubator in F 10-Ham medium with 1% FBS, the tested compounds at various concentrations were added to the wells together with fresh medium. DMSO was added to the medium in a negative control. The MTT test was performed after further culture for 48 h. Then the medium was removed and the formed formazan crystals were dissolved in DMSO. The absorbance was measured at 570 nm in a plate reader and the result was compared to the control (DMSO), which was 100%. The percentage of viability was calculated using the formula: [AT/AC^∗100], where AT is the absorbance of the test sample, AC - absorbance of the control sample. Table 3. Results of inhibiting the activity of monophenolase […] tyrosinase and cytotoxicity testing in B16F10 cells for the described compounds.
# tyrosinase from mushroom = assay: Inhibition of commercial mushroom tyrosinase (L-DOPA or L-tyrosine substrate); assay type: biochemical
# Experimental: The following substrates were used for the enzymatic reaction: L-tyrosine and L-3,4-dihyroxyphenylalanine (L-DOPA). Both substrates were used in independent experiments. According to the literature, the use of L-DOPA enables the assessment of tyrosinase diphenolase activity, and L-tyrosine - the tyrosinase monophenolase activity. The determinations were performed in 96-well plates, in each well there was placed: 170 µL or 127.5 µL of 50 mM phosphate buffer (pH = 6.8) with tyrosinase (1U/well or 3U/well) and 10 µL of a solution of the tested compound in DMSO (the final concentration in the well was 500 µM, 250 µM or 125 µM). The negative control used 10 µL of pure solvent (DMSO). To initiate the reaction, an appropriate substrate was added: L-tyrosine (62.5 µL of solution in phosphate buffer) or L-DOPA (20 µL of solution in phosphate buffer). After a 25-minute incubation, the absorbance was measured at 475 nm using a microplate reader. The percentage of inhibition of tyrosinase activity was calculated using the formula: [(AC -AT)/AC] × 100, where AC - is the absorbance of the negative control, AT - is the absorbance of the sample containing the tested compound.
# S. typhimurium TA1535 = assay: Ames microplate test, TA1535; conditions: without S9;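 note: bacteria exposed to compound 90 min at 37 °C, then kept 48 h at 37 °C with indicator medium in 384-well plates, scoring wells that turned yellow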
# E. coli WP2 = assay: Ames microplate test, E. coli WP2; conditions: without S9;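 note: bacteria treated 90 min at 37 °C in 24-well plates, then indicator medium dispensed to 384-well plates and incubated 48 h before yellow-well counting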
# S. typhimurium TA1537 = assay: Ames microplate test, TA1537; assay type: cell-based, Salmonella typhimurium; conditions: without S9;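 note: reference level is the mean solvent-control yellow wells plus SD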
# Experimental: as §1, §2
compound,measurement,setting,value
"CC(CO)NC(=O)/C=C/c1ccc(Cl)cc1 (centres unmarked) [Compound A-102, (2E)-3-(4-chlorophenyl)-N-(1-hydroxypropan-2-yl)prop-2-enamide]",Increase in the number of yellow wells compared to the reference level,S. typhimurium TA100; 0.5 mM,1.08
same,Increase in the number of yellow wells compared to the reference level,S. typhimurium TA100; 1.0 mM,0.75
same,Increase in the number of yellow wells compared to the reference level,S. typhimurium TA100; 2.0 mM,0.92
same,% Viability [mean],[1]; 100 µM,84.7%
same,% Viability [mean],[1]; 150 µM,69.9%
same,% Viability [mean],[1]; 200 µM,87.2%
same,Increase in the number of yellow wells compared to the reference level,S. typhimurium TA98; 0.5 mM,0.24
same,Increase in the number of yellow wells compared to the reference level,S. typhimurium TA98; 1.0 mM,0.24
same,Increase in the number of yellow wells compared to the reference level,S. typhimurium TA98; 2.0 mM,0.35
same,DB (dicentric bridges in 1000 binucleate cells),[2]; 100 µM,4.0 ± 2.8
same,MN (number of micronuclei in 1000 binucleate cells),[2]; 100 µM,10.5 ± 2.1
same,NB (nuclear buds in 1000 binucleate cells),[2]; 100 µM,5.5 ± 2.1
same,NDI (nuclear division index),[2]; 100 µM,1.54
same,DB (dicentric bridges in 1000 binucleate cells),[2]; 150 µM,2.5 ± 2.1
same,MN (number of micronuclei in 1000 binucleate cells),[2]; 150 µM,6.5 ± 2.1
same,NB (nuclear buds in 1000 binucleate cells),[2]; 150 µM,6.5 ± 2.1
same,NDI (nuclear division index),[2]; 150 µM,1.54
same,DB (dicentric bridges in 1000 binucleate cells),[2]; 200 µM,3.0 ± 1.4
same,MN (number of micronuclei in 1000 binucleate cells),[2]; 200 µM,8.5 ± 0.7
same,NB (nuclear buds in 1000 binucleate cells),[2]; 200 µM,4.0 ± 1.4
same,NDI (nuclear division index),[2]; 200 µM,1.60
same,RM0,[3],2.12
same,Cytotoxicity study in B16F10 cells % viability,[4]; 150 µM,80.6%
same,Cytotoxicity study in B16F10 cells % viability,[4]; 200 µM,83.5%
same,Cytotoxicity study in B16F10 cells % viability,[4]; 250 µM,75.7%
same,Tyrosinase inhibition with L-DOPA [%],tyrosinase from mushroom; L-DOPA,53.02±1.99% (500 µM)
same,IC50,"tyrosinase from mushroom; L-DOPA, read-out: Tyrosinase inhibition with L-DOPA, IC50",440 µM
same,Tyrosinase inhibition with L-tyrosine [%],tyrosinase from mushroom; L-tyrosine,75.45±1.80% (500 µM)
same,IC50,"tyrosinase from mushroom; L-tyrosine, read-out: Tyrosinase inhibition with L-tyrosine, IC50",164 µM
same,Increase in the number of yellow wells compared to the reference level,S. typhimurium TA1535; 0.5 mM,0.55
same,Increase in the number of yellow wells compared to the reference level,S. typhimurium TA1535; 1.0 mM,0.14
same,Increase in the number of yellow wells compared to the reference level,S. typhimurium TA1535; 2.0 mM,0.89
same,Increase in the number of yellow wells compared to the reference level,E. coli WP2; 0.5 mM,0.48
same,Increase in the number of yellow wells compared to the reference level,E. coli WP2; 1.0 mM,1.03
same,Increase in the number of yellow wells compared to the reference level,E. coli WP2; 2.0 mM,0.79
same,Increase in the number of yellow wells compared to the reference level,S. typhimurium TA1537; 0.5 mM,0.33
same,Increase in the number of yellow wells compared to the reference level,S. typhimurium TA1537; 1.0 mM,0.00
same,Increase in the number of yellow wells compared to the reference level,S. typhimurium TA1537; 2.0 mM,1.00
